Test results published in US20250223306A1, “TEAD INHIBITORS AND METHODS OF USE” (Sporos BioDiscovery, Inc., priority 2022, published 2025).

Legend:
LOU-NH91 cells = test: LOU-NH91 proliferation and cell viability assay (CTG); type: cell-based; settings: LOU-NH91 cell line, 216 hours
Procedure: LOU-NH91 cells were trypsinised, counted and plated at the specified cell density in 200 μl of growth media in 96 well flat bottom tissue culture treated plates. The plated cells were incubated overnight at 37° C., 5% CO2 before being treated with compounds in triplicate for each assay point. 50 μl of the serially diluted compound was added to each well giving a final DMSO concentration of 0.5% per well and a total volume of 250 μl per well. The treated cells were incubated for 216 hours (9 days) at 37° C., 5% CO2. Following compound treatment, the remaining viable cells were detected using the Promega CellTiter-Glo 2.0 assay as follows: 150 μl of media was removed from each of the wells to be assayed and 100 μl of room temperature CellTiter-Glo 2.0 reagent was added. The plate was placed on an orbital shaker at 500 rpm at room temperature for 2 minutes, and then incubated without shaking for a further 10 minutes at room temperature. 150 μl of cell lysate was removed from each well and dispensed into a single well of a white opaque 96 well plate. Luminescence at 545 nm was read using a BMG CLARIOstar plate reader. The luminescent signal was directly proportional to number of viable cells, the percent of viable cells relative to the DMSO control was then calculated for each assay point. Percent viability relative to DMSO control was plotted against compound concentration and a curve fitted with non-linear regression in GraphPad Prism software. EC50 and IC50 values were calculated using GraphPad Prism software as follows: For EC50 values a non-constrained four-parameter logistic curve fit was used (Sigmoidal, 4PL, X is concentration). For Absolute IC50 values the baseline was constrained to Y=0 (Absolute IC50, X is concentration). Area Under the Curve (AUC): Prism computes area-under-the-curve by the trapezoidal method. The analysis sees a fitted curve as simply a series of connected XY points. Prism simply computes the area under the “curve” defined by connecting the points by straight lines. The units of the AUC are the units of the Y axis times units of the X axis.

NCI-H226 cells = test: Proliferation and cell viability, CellTiter-Glo 2.0 (CTG) assay; type: cell-based; settings: for IC50: H226-responder cell line, 144 hrs; for EC50: NCI-H226, H226-responder cell line (Table 5)
Procedure: Cell proliferation of a TEAD dependent NF2-null mesothelioma cell line, NCI-H226, and a TEAD-non-dependent mesothelioma cell line, NCI-H28 was assayed using two different protocols: • a) CellTiter-Glo 2.0 (Promega #G9243). The effect of the TEAD inhibitors disclosed herein on cell proliferation was determined in TEAD1-genetically dependent cell line NCI-H226 (responder cell line) and TEAD-independent cell lines (NCI-H23, HEK293T), as non-responder, negative control. Cells were seeded in 96-well plates (Thermo Scientific #167008) in growth media (RPMI-1640, Gibco #61870-010) for NCI-H226 and NCI-H23 or DMEM (Gibco #31966-021, HEK293T) with 10% Heat Inactivated Fetal Bovine Serum (Gibco 10500-064) at 800 (NCI-H226 and HEK-293T) or 2000 (NCI-H23) cells per well at 37° C., 5% CO2, humidified incubator; 24 hours later, fresh growth media containing test compound or DMSO vehicle was added and incubated with the cells for 144 hrs. TEAD inhibitor stocks were made at a 1000× fold excess in DMSO, and a dose response test compound dose range of 10,000 to 0.1 nM was used. Each treatment was carried out in triplicate. After 144 hrs of treatment, relative cell viability numbers were determined using the CellTiter-Glo 2.0 assay following the manufacturer's instructions. Test plates and CellTiter-Glo 2.0 reagent were allowed to equilibrate to room temperature. CellTiter-Glo 2.0 reagent was added at 1:1 reagent to media ratio to the 96-well cell plates, plates were placed on a plate shaker for 2 minutes and then incubated at room temperature for a further 10 minutes to allow complete cell lysis to occur. The mix was then transferred to white, 96-well luminometer assay plates (Greiner Bio One #655075). Luminescence was quantified using a CLARIOStar Plus multi-mode plate reader (BMG Labtech) in luminescence detection mode with the recommended settings (ultra-Glo pre-set: emission 545-50 nm with autofocus and enhanced dynamic range on). Relative cell density was expressed as a function of inhibitor concentration, with respect to DMSO-only control wells. Data where plotted using GraphPad Prism and IC50 values for the biological effect were calculated using the EC50 non-linear fit function using a sigmoidal, 4-parameter logistic, least squares fit with no constraints. • b) Cell Titer One (Promega, #G3582). The effect of the TEAD inhibitors disclosed herein on cell proliferation was also determined using the Promega Substrate Cell Titer Aqueous One Solution Reagent. The TEAD inhibitors were evaluated for the effects on cell proliferation responder (H226) and non-responder negative control cancer cell lines (CAMA1, H28), as well as non-transformed normal human cells (HUVEC, NHDF). Dissociated cells were resuspend in media (depending on cell line, either in DMEM, RPMI, or EMEM all with 10% FBS, with gentamicin as an antibiotic). Cells were seeded at 100 μL/well at 750 cells per well in 96-well plates and allowed to settle and attach. After an incubation of 24 hrs (37° C., 5% CO2, humidified incubator), 100 μL of test compound-containing media was added. A dilution series of 2000× concentrated stock of test compounds was prepared in DMSO, for final concentrations from 0.1 to 10,000 nM. After addition of test compound-containing media, cells were incubated for 6 days at 37° C., 5% CO2, humidified incubators). To measure cell density, 20 μL of Promega Substrate Cell Titer 96 Aqueous One Solution Reagent (Promega, #G3582) to each well was added according to the manufacturer's instructions. Plates were incubated at 37° C. for usually 3-8 hrs, to reach in the control cells (without compound) an OD of 1.5 at 490 nm. The OD was measured using Vmax [Molecular Devices] spectrophotometer plate reader. Media only-wells were used as background controls and cell densities normalized to DMSO vehicle control. ECs were taken as the concentration achieving 50% of maximal growth inhibition.

Row | Compound | IC50 (NCI-H226 cells; Homo sapiens, NCI-H226, 144 h) [nM] | EC50 (NCI-H226 cells; Homo sapiens) [nM] | IC50 (NCI-H226 cells) [nM] | EC50 (LOU-NH91 cells) [nM]
1 | C[C@@H](NC(=O)c1cnc2c(C3=CCC4(CC3)CC4)cccc2c1)c1ncco1 [Compound 166, (R)—N-(1-(oxazol-2-yl)ethyl)-8-(spiro[2.5]oct-5-en-6-yl)quinoline-3-carboxamide] | – | < 200 | – | –
2 | COc1cc(C2=CCC(C(F)(F)F)CC2)c2ncc(C(=O)N[C@H](C)CO)cc2c1 (stereo partly drawn) [Compound 110, N—((R)-1-hydroxypropan-2-yl)-6-methoxy-8-(4-(trifluoromethyl)cyclohex-1-en-1-yl)quinoline-3-carboxamide] | – | < 200 | – | –
3 | C[C@H](NC(=O)c1cnc2c(C3=CC[C@@H](C(F)(F)F)CC3)cccc2c1)c1ncco1 (single isomer, unassigned) [Compound 20, N-(1-(oxazol-2-yl)ethyl)-8-(4-(trifluoromethyl)cyclohex-1-en-1-yl)quinoline-3-carboxamide] | – | – | < 200 | < 200
4 | O=C(NCc1ncco1)c1cnc2c(C3=CCC(C(F)(F)F)CC3)cccc2c1 (stereo not drawn) [Compound 11, N-(oxazol-2-ylmethyl)-8-(4-(trifluoromethyl)cyclohex-1-en-1-yl)quinoline-3-carboxamide] | < 200 | < 200 | – | –
5 | C=CC(=O)Nc1ccc(C)c(Oc2ccc(Cl)cc2)c1 [Compound 1-3, reference compound] | – | < 200 | – | < 200
6 | C[C@H](CO)NC(=O)c1cnc2c(C3=CCC4(CC3)CC(F)(F)C4)cccc2c1 [Compound 165, (R)-8-(2,2-difluorospiro[3.5]non-6-en-7-yl)-N-(1-hydroxypropan-2-yl)quinoline-3-carboxamide] | – | < 200 | – | –
7 | FC(F)(F)c1ccc(CN2CCC(C3CC(Br)=NO3)CC2)cc1 (stereo not drawn) [Compound 1-2, reference compound] | – | < 200 | – | < 200

Second part, led by results:

Row | IC50 (NCI-H226 cells; Homo sapiens, NCI-H226, 144 h) [nM] | EC50 (NCI-H226 cells; Homo sapiens) [nM] | IC50 (NCI-H226 cells) [nM] | Compound | EC50 (LOU-NH91 cells) [nM]
8 | < 200 | < 200 | – | C[C@H](NC(=O)c1cnc2c(C3=CC[C@@H](C(F)(F)F)CC3)cccc2c1)c1ncco1 (single isomer, unassigned) [Compound 19, N-(1-(oxazol-2-yl)ethyl)-8-(4-(trifluoromethyl)cyclohex-1-en-1-yl)quinoline-3-carboxamide] | < 200
9 | < 200 | < 200 | – | C[C@H](CO)NC(=O)c1cnc2c(C3=CCC(C(F)(F)F)CC3)cccc2c1 (stereo partly drawn) [Compound 7, N—((R)-1-hydroxypropan-2-yl)-8-(4-(trifluoromethyl)cyclohex-1-en-1-yl)quinoline-3-carboxamide] | < 200
10 | – | < 200 | – | O=C(NCc1ccn[nH]1)c1cnc2c(C3=CCC(C(F)(F)F)CC3)cccc2c1 (stereo not drawn) [Compound 47, N-((1H-pyrazol-5-yl)methyl)-8-(4-(trifluoromethyl)cyclohex-1-en-1-yl)quinoline-3-carboxamide] | < 200
11 | < 200 | – | – | C[C@H](NC(=O)c1cnc2c(C3=CCC(C(F)(F)F)CC3)cccc2c1)c1ccccn1 (stereo partly drawn) [Compound 2, N—((S)-1-(pyridin-2-yl)ethyl)-8-(4-(trifluoromethyl)cyclohex-1-en-1-yl)quinoline-3-carboxamide] | –
12 | – | < 200 | – | COC[C@H](CO)NC(=O)c1cnc2c(C3=CCC(C(F)(F)F)CC3)cccc2c1 (stereo partly drawn) [Compound 62, N—((S)-1-hydroxy-3-methoxypropan-2-yl)-8-(4-(trifluoromethyl)cyclohex-1-en-1-yl)quinoline-3-carboxamide] | < 200
13 | – | < 200 | – | COc1cc(C2=CCC(C(F)(F)F)CC2)c2ncc(C(=O)N[C@H](C)c3ncco3)cc2c1 (stereo partly drawn) [Compound 109, 6-methoxy-N—((R)-1-(oxazol-2-yl)ethyl)-8-(4-(trifluoromethyl)cyclohex-1-en-1-yl)quinoline-3-carboxamide] | < 200
